Results as given in patent US12241102B2, “Method for synthesizing betalain pigment” (priority 2018, dated 2025).

What was measured:
HIV-1 protease [1] = target: T1, HIV-1 protease (Human immunodeficiency virus type 1 group M subtype B, UniProt P04585); assay: Evaluation of HIV-1 protease inhibitory activity (residual substrate peptide by HPLC); assay type: biochemical; parameters: A recombinant HIV-1 protease (ab84117) from Abcam was used as an HIV-1 protease; purchased Abcam ab84117; settings: 25° C., 2 hours, pH 4.7
From the text: FIG. 15 show the results of evaluation of inhibition of an HIV-1 protease. FIG. 15A includes HPLC chromatograms of HIV-1 protease reaction mixtures. Dashed and solid arrows indicate an HIV-1 protease substrate and its degradation product, respectively. (+) and (−)HIV-1 protease indicate reaction mixtures with and without the HIV-1 protease, respectively. (−)Betalain indicates a reaction mixture without betalain pigments. The horizontal axis indicates the retention time (min), and the vertical axis indicates the signal intensity (μV). […] Gray and black bars indicate reaction mixtures containing betanin and amaranthin, respectively. The white bar indicates the reaction mixture without betalain pigments as a negative control. Bars represent the mean±SE (n=3). Symbol “*” represents p<0.05 as compared to the reaction mixture without betalain pigments. 0, 10, 50, and 100 indicate 0-, 10-, 50-, and 100-fold amounts of betalain as compared to the HIV-1 protease. […]
After the reaction, the reaction liquid was measured for the amount of the residual substrate peptide through use of HPLC, and a residual ratio with respect to the substrate before the reaction was calculated. […] Analysis was performed with an analytical wavelength being set to 260 nm allowing the HIV-1 protease substrate peptide to be detected.

[2] = test system: Human breast cancer cells (MCF-7); assay: Influence of betalain pigment on human breast cancer cells (AlamarBlue assay); assay type: cell-based; settings: MCF-7 cells, concentration of 50 μM, cultured for 72 hours, p<0.05 vs untreated cells
Experimental: FIG. 14 show the results of evaluation of cell proliferation in MCF-7 cells. FIG. […] Cell proliferation was determined using an AlamarBlue assay according to the manufacturer's instructions. Bars represent the mean±SE (n=5). Symbol “*” represents p<0.05 as compared to untreated cells. […] Cells were examined under an inverted microscope. Bars represent 100 μm.
Human breast cancer cells (MCF-7) were received from the RIKEN BioResource Center. For the culture of the cells, Dulbecco's modified Eagle's medium-high glucose (4.5 g L^−1 glucose; DMEM-HG) supplemented with 10% FBS and antibiotics (100 U mL^−1 penicillin and 100 μg mL^−1 streptomycin) was used. The cells were cultured under the culture conditions of 37° C., a humidity of 100%, and a 5% CO2/95% air atmosphere. For the culture, the breast cancer cells were added at 5,000 cells per well on 96-well plates, and at the same time, amaranthin or betanin was added at different concentrations, and the cells were cultured for 72 hours. After that, the activity of the breast cancer cells was evaluated by an AlamarBlue assay (alamarBlue Cell Viability Reagent, Thermo Fisher Scientific). The procedure followed the accompanying instructions.

HIV-1 protease [3] = target: T1, HIV-1 protease; settings: literature virtual screening, not tested experimentally there; cited from earlier work

Row | SMILES | inhibitory activity on the HIV-1 protease (HIV-1 protease [1]; 10-, 50- and 100-fold amounts with respect to the HIV-1 protease) | cancer cell activity of the breast cancer cells [2] | virtual screening prediction as HIV-1 protease inhibitor (HIV-1 protease [3]) | activity of the HIV-1 protease (HIV-1 protease [1]; 100-fold amount with respect to the HIV-1 protease (16 pmol))
1 | O=C(O)C1=C/C(=C/C=[N+]2/c3cc(O)c(OC4OC(CO)[C@@H](O)C(O)C4O)cc3CC2C(=O)[O-])CC(C(=O)O)N1 (stereo in doubt) [betanin, reference compound] | not found to have inhibitory activity | significantly suppressed | – | –
2 | O=C(O)C1=C/C(=C/C=[N+]2c3cc(O)c(O[C@@H]4O[C@H](CO)[C@@H](O)[C@H](O)[C@H]4O[C@@H]4O[C@H](C(=O)O)[C@@H](O)[C@H](O)[C@H]4O)cc3C[C@H]2C(=O)[O-])C[C@@H](C(=O)O)N1 [amaranthin] | – | significantly suppressed | candidate of a novel HIV-1 protease inhibitor | significantly inhibited
